From US8394772B2, “Glycoside derivative and uses thereof” (Novartis AG, priority 2009, dated 2013)

Key:
human SGLT1 = molecular target: T1, human SGLT1 (Homo sapiens, UniProt P13866); test: Analogous SGLT1 selectivity test: hSGLT1 expressed in CHO-K1 or HEK293 cells; assay type: cell-based; details: n = 1-4; 14C-AMG uptake, hSGLT1-transfected CHO-K1 or HEK293 cells
T1 construct: expressed in transfected cells; host or cells: CHO-K1 or HEK293
T1 sequence (P13866 1-664): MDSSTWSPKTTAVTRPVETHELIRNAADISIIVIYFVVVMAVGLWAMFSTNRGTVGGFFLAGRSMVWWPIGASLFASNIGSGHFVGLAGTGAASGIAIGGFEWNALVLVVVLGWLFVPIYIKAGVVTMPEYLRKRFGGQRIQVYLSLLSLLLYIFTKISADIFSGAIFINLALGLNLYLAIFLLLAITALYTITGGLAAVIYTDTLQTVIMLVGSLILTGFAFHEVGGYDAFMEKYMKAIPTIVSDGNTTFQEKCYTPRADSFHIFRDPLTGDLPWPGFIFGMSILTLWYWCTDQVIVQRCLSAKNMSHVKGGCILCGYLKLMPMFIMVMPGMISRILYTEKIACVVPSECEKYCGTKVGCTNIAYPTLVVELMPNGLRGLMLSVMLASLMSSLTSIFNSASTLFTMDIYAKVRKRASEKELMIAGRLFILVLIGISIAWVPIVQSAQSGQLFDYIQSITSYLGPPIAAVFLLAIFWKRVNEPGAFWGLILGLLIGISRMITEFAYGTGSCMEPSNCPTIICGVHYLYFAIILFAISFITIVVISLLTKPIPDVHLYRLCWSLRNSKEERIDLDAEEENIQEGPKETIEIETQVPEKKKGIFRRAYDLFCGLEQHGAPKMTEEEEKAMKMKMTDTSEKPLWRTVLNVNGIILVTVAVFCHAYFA
Protocol: (§1) The SGLT-2 assay is carried out as follows: CHO-hSGLT2 cells are cultivated in Ham's F12 Medium (BioWhittaker) with 10% fetal calf serum and 250 μg/mL zeocin (Invitrogen), and HEK293-hSGLT2 cells are cultivated in DMEM medium with 10% fetal calf serum and 250 μg/mL zeocin (Invitrogen). The cells are detached from the culture flasks by washing twice with PBS and subsequently treating with trypsin/EDTA. After the addition of cell culture medium the cells are centrifuged, resuspended in culture medium and counted in a Casy cell counter. Then 40,000 cells per well are seeded into a white, 96-well plate coated with poly-D-lysine and incubated overnight at 37° C., 5% CO2. The cells are washed twice with 250 μl of assay buffer (Hanks Balanced Salt Solution, 137 mM NaCl, 5.4 mM KCl, 2.8 mM CaCl2, 1.2 mM MgSO4 and 10 mM HEPES (pH 7.4), 50 μg/mL of gentamycin). 250 μl of assay buffer and 5 μl of test compound are then added to each well and the plate is incubated for a further 15 minutes in the incubator. 5 μl of 10% DMSO are used as the negative control. The reaction is started by adding 5 μl of 14 C-AMG (0.05 μCi) to each well. After 2 hours' incubation at 37° C., 5% CO2, the cells are washed again with 250 μl of PBS ([…]) and then lysed by the addition of 25 μl of 0.1 N NaOH (5 min. at 37° C.). 200 μl of MicroScint20 (Packard) are added to each well and incubation is continued for a further 20 min at 37° C. After this incubation the radioactivity of the 14 C-AMG absorbed is measured in a Topcount (Packard) using a 14 C scintillation program.
To determine the selectivity with respect to human SGLT1 an analogous test is set up in which the cDNA for hSGLTI (Genbank Ace. No. NM000343) instead of hSGLT2 cDNA is expressed in CHO-K1 or HEK293 cells.

[1] = molecular target: T2, human sodium glucose cotransporter 2 (Homo sapiens, UniProt P31639); test: SGLT-2 assay: sodium-dependent 14C-AMG uptake in CHO-hSGLT2 or HEK-hSGLT2 cells; assay type: cell-based; details: n = 1-4, hSGLT2-transfected CHO-K1 or HEK293 cells, read-out: SGLT2 IC50 nM (n = 1-4)
T2 construct: expressed in transfected cells; host or cells: CHO-K1 (ATCC CCL-61) or HEK293 (ATCC CRL-1573), stably transfected with pZeoSV
T2 sequence (P31639 1-672): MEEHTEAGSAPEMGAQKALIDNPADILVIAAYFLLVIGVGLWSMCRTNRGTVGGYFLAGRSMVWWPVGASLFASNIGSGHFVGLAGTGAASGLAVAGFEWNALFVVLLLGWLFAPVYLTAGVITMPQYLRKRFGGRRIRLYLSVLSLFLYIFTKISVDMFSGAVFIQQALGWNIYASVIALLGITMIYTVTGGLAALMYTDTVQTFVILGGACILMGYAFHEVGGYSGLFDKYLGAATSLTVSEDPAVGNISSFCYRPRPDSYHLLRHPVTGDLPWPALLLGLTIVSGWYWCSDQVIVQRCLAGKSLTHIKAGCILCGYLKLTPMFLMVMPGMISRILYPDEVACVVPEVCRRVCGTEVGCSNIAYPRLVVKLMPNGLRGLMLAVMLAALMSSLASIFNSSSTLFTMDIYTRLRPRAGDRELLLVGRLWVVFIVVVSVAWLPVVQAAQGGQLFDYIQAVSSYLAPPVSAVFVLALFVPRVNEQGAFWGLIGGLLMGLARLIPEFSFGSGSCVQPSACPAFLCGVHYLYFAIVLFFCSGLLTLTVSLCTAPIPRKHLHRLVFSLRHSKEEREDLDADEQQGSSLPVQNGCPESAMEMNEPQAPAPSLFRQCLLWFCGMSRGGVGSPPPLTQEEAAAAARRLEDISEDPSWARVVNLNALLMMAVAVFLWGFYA
Protocol: These cell lines transport 14 C-labeled alpha-methyl-glucopyranoside (14 C-AMG, Amersham) into the interior of the cell in sodium-dependent manner.
as §1

IC50 (human SGLT1) [nM] | IC50 [1] [nM] | Compound
300 | 1 | CCOc1ccc(Cc2cc([C@@H]3OC4(CC4)[C@@H](O)[C@H](O)[C@H]3O)ccc2Cl)cc1 [Example 2, (5S,6R,7R,8S)-5-[4-Chloro-3-(4-ethoxy-benzyl)-phenyl]-4-oxa-spiro[2.5]octane-6,7,8-triol]
153 | 0.9 | CCOc1ccc(Cc2cc([C@@H]3OC4(CC4)[C@@H](O)[C@H](O)[C@H]3O)ccc2C)cc1 [Example 3, (5S,6R,7R,8S)-5-[3-(4-Ethoxy-benzyl)-4-methyl-phenyl]-4-oxa-spiro[2.5]octane-6,7,8-triol]
460 | 2.6 | Oc1ccc(Cc2cc([C@@H]3OC4(CC4)[C@@H](O)[C@H](O)[C@H]3O)ccc2Cl)cc1 [Example 6, (5S,6R,7R,8S)-5-[4-Chloro-3-(4-hydroxy-benzyl)-phenyl]-4-oxa-spiro[2.5]octane-6,7,8-triol]
> 30000 | 23 | CCOc1ccc(Cc2cc([C@@H]3OC(CO)(CO)[C@@H](O)[C@H](O)[C@H]3O)ccc2Cl)cc1 [Example 10, (3S,4R,5R,6S)-6-[4-Chloro-3-(4-ethoxy-benzyl)-phenyl]-2,2-bis-hydroxymethyl-tetrahydro-pyran-3,4,5-triol]
